Test results: the supplement of paper PMC10307832

What was measured:
Assay in all cases: relative viability (nuclei count vs DMSO), 5 days (fraction); higher = more cells survive
BAM7 + AZD7762 = compound: CCOC1=CC=CC=C1N=NC2=C(NN(C2=O)C3=NC(=CS3)C4=CC=CC=C4)C [BAM7] + NC(=O)Nc1cc(-c2cccc(F)c2)sc1C(=O)N[C@H]1CCCNC1 [AZD7762] (partner 0.2 µM)
In short: (§1)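 Lung cancer cell lines in 1536-well plates were dosed by pin tool the day after seeding, either with one drug alone or with a fixed anchor-drug dose plus five library-drug doses (not always all listed) in √10 steps. After 5 days, cells were fixed and their nuclei stained in one step (final 0.05% Triton X-100, 1% formaldehyde, 1 ug/ml Hoechst), then counted on 4× images. Relative viability is the nuclei count in treated wells divided by that in vehicle wells. Values are medians of duplicate plates.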

BAM7 + Vorinostat = compound: CCOC1=CC=CC=C1N=NC2=C(NN(C2=O)C3=NC(=CS3)C4=CC=CC=C4)C [BAM7] + O=C(CCCCCCC(=O)Nc1ccccc1)NO [Vorinostat] (partner 1 µM)
In short: as §1

[1] = compound: CCn1c(-c2nonc2N)nc2c(C#CC(C)(C)O)ncc(OC[C@H]3CCCNC3)c21 + COc1cc2c(Oc3ccc(NC(=O)C4(C(=O)Nc5ccc(F)cc5)CC4)cc3F)ccnc2cc1OCCCN1CCOCC1 [Foretinib] (partner 0.25 µM)
In short: as §1

[2] = compound: CCn1c(-c2nonc2N)nc2c(C#CC(C)(C)O)ncc(OC[C@H]3CCCNC3)c21 + C[C@@H](Oc1cc(-c2cnn(C3CCNCC3)c2)cnc1N)c1c(Cl)ccc(F)c1Cl [Crizotinib] (partner 1 µM)
In short: as §1

| Cell Line | relative viability (BAM7 + AZD7762; first compound 0.5 µM) | relative viability (BAM7 + AZD7762; first compound 5 µM) | relative viability (BAM7 + AZD7762; first compound 15.81 µM) | relative viability (BAM7 + AZD7762; first compound 50 µM) | relative viability (BAM7 + Vorinostat; first compound 0.5 µM) | relative viability (BAM7 + Vorinostat; first compound 5 µM) | relative viability (BAM7 + Vorinostat; first compound 15.81 µM) | relative viability (BAM7 + Vorinostat; first compound 50 µM) | relative viability ([1]; first compound 0.01 µM) | relative viability ([1]; first compound 0.03162 µM) | relative viability ([1]; first compound 0.1 µM) | relative viability ([1]; first compound 0.3162 µM) | relative viability ([1]; first compound 1 µM) | relative viability ([2]; first compound 0.01 µM) | relative viability ([2]; first compound 0.03162 µM) | relative viability ([2]; first compound 0.1 µM) | relative viability ([2]; first compound 0.3162 µM) | relative viability ([2]; first compound 1 µM) |
| --- | --- | --- | --- | --- | --- | --- | --- | --- | --- | --- | --- | --- | --- | --- | --- | --- | --- | --- |
| NCI-H596 | 1.27 | 1.12 | 0.92 | 1.05 | 0.646 | 0.716 | 0.558 | 0.7 | 0.895 | 1 | 0.744 | 0.84 | 0.639 | 0.834 | 1.08 | 0.996 | 0.915 | 0.948 |
| NCI-H647 | 0.559 | 0.488 | 0.592 | 0.459 | 0.4 | 0.532 | 0.556 | 0.712 | 1.26 | 1.1 | 1.14 | 1.16 | 1.22 | 1.04 | 1.31 | 1.11 | 1.07 | 0.92 |
| NCI-H650 | 0.913 | 0.992 | 1.01 | 1.15 | 0.541 | 0.531 | 0.518 | 0.492 | 1.01 | 0.979 | 0.993 | 1 | 1.13 | 0.561 | 0.697 | 0.683 | 0.68 | 0.666 |
| NCI-H727 | 0.586 | 0.675 | 0.678 | 0.41 | 1.42 | 1.09 | 0.942 | 0.839 | 0.833 | 1.22 | 0.693 | 0.877 | 1.08 | 0.841 | 0.94 | 0.785 | 0.667 | 0.763 |
| NCI-H838 | 0.919 | 0.968 | 0.862 | 1 | 0.741 | 0.776 | 0.723 | 0.673 | 0.969 | 1.08 | 0.988 | 1.02 | 1.07 | 0.805 | 0.969 | 0.826 | 0.835 | 0.841 |
| NCI-H1355 | 0.654 | 0.66 | 0.68 | 0.697 | 0.617 | 0.553 | 0.544 | 0.566 | 0.954 | 1.05 | 0.937 | 0.906 | 0.81 | 1.09 | 0.943 | 1.03 | 1.02 | 0.799 |
| NCI-H1437 | 1.1 | 1.11 | 0.945 | 1.02 | 0.734 | 0.669 | 0.616 | 0.677 | 1.18 | 1.27 | 1.28 | 1.27 | 1.36 | 0.911 | 0.821 | 0.899 | 0.936 | 0.927 |
| NCI-H1651 | 0.444 | 0.46 | 0.473 | 0.45 | 0.543 | 0.59 | 0.661 | 0.612 | 0.865 | 0.807 | 0.743 | 0.521 | 0.779 | 0.857 | 0.829 | 0.877 | 0.853 | 0.893 |
| NCI-H1666 | 0.847 | 0.826 | 0.902 | 0.762 | 1.08 | 0.944 | 1.01 | 1.05 | 0.946 | 0.957 | 0.982 | 1.02 | 1.02 | 1.04 | 1.1 | 0.966 | 0.943 | 0.968 |
| NCI-H1734 | 0.559 | 0.642 | 0.526 | 0.548 | 0.841 | 0.903 | 0.812 | 0.832 | 0.765 | 0.841 | 0.801 | 0.748 | 0.799 | 0.629 | 0.721 | 0.682 | 0.685 | 0.641 |
| NCI-H1755 | 0.472 | 0.437 | 0.495 | 0.405 | 0.751 | 0.867 | 0.79 | 0.844 | 0.993 | 0.933 | 0.899 | 0.841 | 0.95 | 0.877 | 0.866 | 0.84 | 0.892 | 0.849 |
| NCI-H1915 | 0.676 | 0.671 | 0.759 | 0.741 | 0.487 | 0.564 | 0.537 | 0.515 | 1.11 | 1.1 | 1.08 | 1.01 | 1 | 0.909 | 0.909 | 0.809 | 0.872 | 0.856 |
| NCI-H1944 | 0.51 | 0.525 | 0.508 | 0.623 | 0.521 | 0.46 | 0.396 | 0.43 | 0.755 | 0.888 | 0.821 | 0.851 | 0.876 | 1.07 | 1.07 | 1.02 | 1.07 | 1.09 |
| NCI-H1975 | 0.725 | 0.763 | 0.642 | 0.632 | 0.681 | 0.713 | 0.631 | 0.616 | 0.983 | 1.04 | 0.937 | 0.95 | 0.885 | 0.945 | 1.08 | 0.893 | 1.03 | 0.98 |
| NCI-H1993 | 0.814 | 0.624 | 0.495 | 0.665 | 0.723 | 0.765 | 0.71 | 0.696 | 0.693 | 0.835 | 0.785 | 0.733 | 0.714 | 0.856 | 0.877 | 0.92 | 0.775 | 0.887 |
| NCI-H2085 | 0.967 | 0.709 | 0.915 | 0.991 | 0.824 | 0.654 | 0.74 | 0.822 | 0.857 | 0.901 | 0.985 | 0.994 | 0.881 | 0.882 | 0.882 | 0.802 | 0.817 | 0.749 |
| NCI-H2087 | 1.34 | 1.47 | 1.25 | 1.07 | 0.852 | 0.736 | 0.489 | 0.475 | 0.927 | 1.06 | 1.15 | 0.981 | 1.03 | 0.729 | 0.748 | 0.942 | 0.847 | 0.732 |
| NCI-H2126 | 0.804 | 0.983 | 1.03 | 0.936 | 0.719 | 0.597 | 0.635 | 0.664 | 1.1 | 1.16 | 1.25 | 1.11 | 1.2 | 1.01 | 1 | 0.993 | 0.974 | 1.06 |
| NCI-H2170 | 0.652 | 0.691 | 0.614 | 0.804 | 0.842 | 0.731 | 0.651 | 0.601 | 0.987 | 1.01 | 0.972 | 0.996 | 1.07 | 1.16 | 1.26 | 1.1 | 1.15 | 1.24 |
| NCI-H2347 | 0.768 | 0.657 | 0.902 | 0.794 | 0.691 | 0.653 | 0.516 | 0.588 | 0.836 | 0.841 | – | 0.798 | 0.676 | 0.7 | 0.815 | 0.723 | 0.708 | 0.813 |
| NCI-H2405 | 0.832 | 0.862 | 0.811 | 0.758 | 1.02 | 1.06 | 1.18 | 0.917 | 1.06 | 1.05 | 0.948 | 1.03 | 1.05 | 0.888 | 0.911 | 0.704 | 0.798 | 0.848 |
| NCI-H3122 | 0.946 | 1.13 | 0.918 | 0.846 | 0.985 | 0.887 | 1.02 | 1.14 | 0.923 | 0.941 | 0.962 | 1 | 0.883 | 0.276 | 0.312 | 0.264 | 0.283 | 0.276 |
| PC-3 [JPC-3] | 0.889 | 0.74 | 0.64 | 0.686 | 0.754 | 0.793 | 0.775 | 0.638 | 0.982 | 1.04 | 1.12 | 0.902 | 1.08 | 0.944 | 0.988 | 1.04 | 0.909 | 0.993 |
| PC-14 | 0.356 | 0.317 | 0.334 | 0.374 | 0.86 | 0.616 | 0.697 | 0.7 | 0.933 | 1.02 | 1.02 | 0.894 | 1 | 0.925 | 0.863 | 0.944 | 0.94 | 0.839 |
| RERF-LC-KJ | 0.992 | 1.11 | 0.855 | 0.627 | 0.62 | 0.601 | 0.485 | 0.416 | 0.858 | 0.821 | 0.921 | 0.767 | 0.973 | 0.808 | 0.788 | 0.815 | 0.829 | 0.837 |
